From US10744136B2, “Sulfonamide derivatives as JAK inhibitors” (Avista Pharma Solutions, Inc., priority 2018, dated 2020)

Target: T1, JAK1 (Homo sapiens, UniProt P23458)
T1 construct: purchased Thermo Fisher Scientific
Assay: Z'-LYTE JAK1 kinase screen (Thermo Fisher Scientific)
Type: biochemical
Details: 1% DMSO, ATP at Km apparent; for % Inhibition 1000 nm: test compound 1000 nm (so in the source)
Experimental: The example compounds were screened for Jak1 activity at Thermo Fisher Scientific, using their Z′-Lyte™ protocol, as described below. Selectivity screening against other kinases can be performed following similar procedures. Z′-LYTE Assay Conditions: The Test Compounds are screened in 1% DMSO (final) in the well. Three screening concentrations (10, 100, and 1000 nM) of test compounds were used. Peptide/Kinase Mixtures: All Peptide/Kinase Mixtures are diluted to a 2× working concentration in the appropriate Kinase Buffer (For JAK1, the 2×JAK1/Tyr 06 mixture is prepared in 50 mM HEPES pH 6.5, 0.01% BRIJ-35, 10 mM MgCl2, 1 mM EGTA, 0.02% NaN3. The final 10 μL Kinase Reaction consists of 21.2-91.5 ng JAK1 and 2 μM Tyr 06 in 50 mM HEPES pH 7.0, 0.01% BRIJ-35, 10 mM MgCl2, 1 mM EGTA, 0.01% NaN3. After the 1 hour Kinase Reaction incubation, 5 μL of a 1:128 dilution of Development Reagent A is added). ATP Solution: All ATP Solutions are diluted to a 4× working concentration in Kinase Buffer (50 mM HEPES pH 7.5, 0.01% BRIJ-35, 10 mM MgCl2, 1 mM EGTA). ATP: Km apparent is previously determined using a Z′-LYTE assay. 10× Novel PKC Lipid Mix: 2 mg/ml Phosphatidyl Serine, 0.2 mg/ml DAG in 20 mM HEPES, pH 7.4, 0.3% CHAPS. For 5 mL 10× Novel PKC Lipid Mix: • 1. Add 10 mgs Phosphatidyl Serine (Avanti Polar Lipids Part #8400032C or 840039C) and 1 mg DAG (Avanti Polar Lipids Part #800811C) to a glass tube. • 2. Remove the chloroform from lipid mixture by evaporating to a clear, thin film under a stream of nitrogen. Continuous rotation of the tube, at an angle to ensure maximum surface area of the lipid solution, will promote the thinnest film. • 3. Add 5 mLs resuspension buffer, 20 mM HEPES, 0.3% CHAPS, pH 7.4, to the dried lipid mix • 4. Heat gently to 50-60° C. for 1-2 minutes and vortex in short intervals until the lipids are dissolved to a clear or slightly hazy solution. The lipids are typically in solution after 2-3 heat/vortex cycles. • 5. Cool to room temperature, aliquot into single use volumes and store at −20° C. Assay Protocol Bar-coded Corning, low volume NBS, black 384-well plate (Corning Cat. #4514) • 1. 100 nL—100× Test Compound in 100% DMSO • 2. 2.4 μL—Kinase buffer • 3. 5 μL—2× Peptide/Kinase Mixture • 4. 2.5 μL—4×ATP Solution • 5. 30-second plate shake • 6. 60-minute Kinase Reaction incubation at room temperature • 7. 5 μL—Development Reagent Solution • 8. 30-second plate shake • 9. 60-minute Development Reaction incubation at room temperature • 10. Read on fluorescence plate reader and analyze the data.

T1 sequence (P23458 whole entry): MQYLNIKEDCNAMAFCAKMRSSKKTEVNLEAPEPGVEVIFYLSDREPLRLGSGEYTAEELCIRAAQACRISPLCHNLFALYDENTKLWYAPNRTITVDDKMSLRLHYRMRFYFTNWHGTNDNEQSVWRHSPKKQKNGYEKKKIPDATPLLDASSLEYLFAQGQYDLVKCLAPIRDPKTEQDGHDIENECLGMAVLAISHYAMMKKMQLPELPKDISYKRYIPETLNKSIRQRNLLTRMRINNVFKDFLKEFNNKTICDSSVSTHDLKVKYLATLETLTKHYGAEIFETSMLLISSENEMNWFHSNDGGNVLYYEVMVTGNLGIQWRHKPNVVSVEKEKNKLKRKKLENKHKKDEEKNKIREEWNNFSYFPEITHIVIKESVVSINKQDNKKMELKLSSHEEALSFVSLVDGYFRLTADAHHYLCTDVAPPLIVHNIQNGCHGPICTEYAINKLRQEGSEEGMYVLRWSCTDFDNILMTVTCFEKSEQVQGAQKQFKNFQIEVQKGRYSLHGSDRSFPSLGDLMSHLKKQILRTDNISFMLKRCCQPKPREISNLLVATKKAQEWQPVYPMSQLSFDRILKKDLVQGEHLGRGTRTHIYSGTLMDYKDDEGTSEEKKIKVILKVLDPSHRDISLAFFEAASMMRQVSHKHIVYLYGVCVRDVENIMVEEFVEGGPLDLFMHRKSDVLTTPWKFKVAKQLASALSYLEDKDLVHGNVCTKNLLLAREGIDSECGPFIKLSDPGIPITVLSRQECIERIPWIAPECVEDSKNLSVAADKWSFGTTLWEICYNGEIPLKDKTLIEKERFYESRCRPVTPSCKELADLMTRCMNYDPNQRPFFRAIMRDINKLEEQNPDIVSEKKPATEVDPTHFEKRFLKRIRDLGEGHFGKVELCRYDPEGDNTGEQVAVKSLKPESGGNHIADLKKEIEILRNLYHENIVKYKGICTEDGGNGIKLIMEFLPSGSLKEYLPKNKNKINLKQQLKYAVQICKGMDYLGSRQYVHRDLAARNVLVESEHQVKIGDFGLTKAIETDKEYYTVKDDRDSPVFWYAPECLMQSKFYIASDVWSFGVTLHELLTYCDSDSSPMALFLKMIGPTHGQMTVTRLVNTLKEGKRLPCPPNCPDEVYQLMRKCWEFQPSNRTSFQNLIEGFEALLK

In the case of `CC(C)NS(=O)(=O)C1CC2(CC(N(C)c3ncnc4[nH]ccc34)C2)C1` (stereo not drawn) [Compound 4, N-isopropyl-6-[methyl(7H-pyrrolo[2,3-d]pyrimidin-4-yl)amino]spiro[3.3]heptane-2-sulfonamide], the inhibition at 0.01 µM (test compound 10 nM) is reported as 23%, the inhibition at 0.1 µM (test compound 100 nM) is reported as 75% and the “% Inhibition 1000 nm” value is reported as 95%.
For `CCNS(=O)(=O)C1CC2(CC(N(C)c3ncnc4[nH]ccc34)C2)C1` (stereo not drawn) [Compound 2, N-ethyl-6-[methyl(7H-pyrrolo[2,3-d]pyrimidin-4-yl)amino]spiro[3.3]heptane-2-sulfonamide], the inhibition at 0.01 µM (test compound 10 nM) was 52%, the inhibition at 0.1 µM (test compound 100 nM) was 90% and the “% Inhibition 1000 nm” value was 98%.
In the case of `CN(c1ncnc2[nH]ccc12)C1CC2(C1)CC(S(=O)(=O)NC(C)(C)C)C2` (stereo not drawn) [Compound 8, N-tert-butyl-6-[methyl(7H-pyrrolo[2,3-d]pyrimidin-4-yl)amino]spiro[3.3]heptane-2-sulfonamide], the inhibition at 0.01 µM (test compound 10 nM) is reported as 37%, the inhibition at 0.1 µM (test compound 100 nM) is reported as 82% and the “% Inhibition 1000 nm” value is reported as 94%.
With `CNS(=O)(=O)C1CC2(CC(N(C)c3ncnc4[nH]ccc34)C2)C1` (single isomer, unassigned; enantiomer a) [Compound 26, (Enantiomer A)-N-methyl-6-[methyl(7H-pyrrolo[2,3-d]pyrimidin-4-yl)amino]spiro[3.3]heptane-2-sulfonamide] the “% Inhibition 10 nM” value (test compound 10 nM, 0.01 µM) was 77%, the “% Inhibition 100 nM” value (test compound 100 nM, 0.1 µM) was 96% and the “% Inhibition 1000 nm” value was 98%.
In the case of `CCS(=O)(=O)NC1CC2(C1)CC(N(C)c1ncnc3[nH]ccc13)C2` (stereo not drawn) [Compound 16, N-[2-[methyl(7H-pyrrolo[2,3-d]pyrimidin-4-yl)amino]spiro[3.3]heptan-6-yl]ethanesulfonamide], the inhibition at 0.01 µM (test compound 10 nM) is reported as 28%, the inhibition at 0.1 µM (test compound 100 nM) is reported as 76% and the “% Inhibition 1000 nm” value is reported as 96%.
With `CN(c1ncnc2[nH]ccc12)C1CC2(C1)CC(S(=O)(=O)N(C)C)C2` (stereo not drawn) [Compound 29, N,N-dimethyl-6-[methyl(7H-pyrrolo[2,3-d]pyrimidin-4-yl)amino]spiro[3.3]heptane-2-sulfonamide] the inhibition at 0.01 µM (test compound 10 nM) was 55%, the inhibition at 0.1 µM (test compound 100 nM) was 92% and the “% Inhibition 1000 nm” value was 98%.
With `CCS(=O)(=O)NCC1CC2(C1)CC(N(C)c1ncnc3[nH]ccc13)C2` (stereo not drawn) [Compound 23, N-((6-(methyl(7H-pyrrolo[2,3-d]pyrimidin-4-yl)amino)spiro[3.3]heptan-2-yl)methyl)ethanesulfonamide] the inhibition at 0.01 µM (test compound 10 nM) was 66%, the inhibition at 0.1 µM (test compound 100 nM) was 94% and the “% Inhibition 1000 nm” value was 97%.
